Patent US20250034264A1, “REGULATING T CELL IMMUNE RESPONSE THROUGH IGF-I RECEPTOR (IGF-1R)” (The Regents of the University of Michigan, priority 2021, published 2025)

Key:
Type in all cases: cell-based, human
[1] = test system: GD-OF; assay: icIL-1RA and sIL-1RA protein (ELISA)
Method: FIGS. 11A-11F are graphs showing teprotumumab attenuates bTSH induced IL-10 while enhancing icIL-1RA and sIL-1RA expression in fibrocytes and GD-OF. Fibrocyte cultures were treated with teprotumumab (50 μg/ml), rhSlit2 (50 ng/ml) or human Isotype IgG for 7-9 d, with bTSH (5 mIU/mL) for final 6 h. RNA was extracted and reverse transcribed. Isolated cDNA was subjected to quantitative real-time PCR for IL-10 (FIGS. 11A and 11B), icIL-1RA (FIGS. 11C and 11D). Media and cellular proteins were collected and subjected to specific ELISAs for icIL-1RA and sIL-1RA (FIGS. 11E, 11F, 11G, and 11H). PCR values were normalized to their respective GAPDH levels. icIL-1RA and sIL-1RA protein levels were normalized to cellular protein levels. Data are expressed as the mean±SD of three independent determinations. Experiments were repeated three times. **, p<0.01; ***. P<0.001.

[2] = test system: fibrocyte/adherent T cell co-cultures; assay: IL-17A and INFγ released into culture medium (ELISA); conditions: 50 μg/mL, day 9
From the text: ELISAs Media were collected from cultures treated as indicated and analyzed for concentrations of […] and IL-17A using specific ELISA kits (R&D systems) according to the manufacture's protocol.

[3] = test system: fibrocyte-adherent CD4+ T cells; assay: IL-17A and INFγ in fibrocyte-adherent CD4+ T cells (flow cytometry)
Method: (§1) Invariably, a small population of tightly adherent T cells were found in the fibrocyte cultures, consistent with the previous findings. Culture viability was routinely verified to be >90%. CD4^+ T cells were enriched using the CD4 isolation cocktail (Cat #0.130-096-533, Miltenyi Biotec, San Diego, CA) followed by negative selection using a magnetic column (Cat #0.130-042-401) according to manufacturer's protocol. Fibrocytes and isolated T cells were cultured and remained untreated or were incubated with human IgG isotype control (5 μg/ml) or teprotumumab (50 μg/mL) for 7 to 9 days. Single cell suspensions were stained with anti-human CD4, CD3, CD34, MHC-2, CD80, CD86, and PD-L1 (BD Biosciences) for 30 min, rinsed and fixed with CytoPerm/CytoFix (BD). They were then stained with anti-human INFγ and IL-17A for 20 min, rinsed, and subjected to the flow cytometry analysis. Gated CD34^+CXCR4^+ fibrocytes and CD4^+CD3^+ T cells were analyzed using quadrant settings based on negative isotype staining.
(§2) In vitro studies of CD34^+ fibrocytes and T cells PBMC and GD-OF monolayers were treated in vitro with human IgG isotype control (5 μg/ml), teprotumumab (50 μg/mL), H7 (5 μg/mL), linsitinib (1 μM), bTSH (5 mIU/mL), M22 (1 μg/mL), or IGF-1 (10 nM) for the intervals indicted in the figure legends in a 37° C., 5% CO2, humidified incubator until confluent. Brefeldin A (0.66 μl/ml), (Golgi Stop™, BD Biosciences), phorbol 12-myristate 13-acetate (PMA) (50 ng/ml) and ionomycin (1 μg/mL) were added for 5 h. Cells were rinsed with flow cytometry buffer (1×PBS, 0.5% BSA, 0.1% sodium azide) and stained with the relevant monoclonal antibodies.

[4] = test system: fibrocytes; assay: RNA Pol II ChIP transcription assay; conditions: 50 μg/mL
Method: RNA Pol II ChIP transcription assay Transcriptional assays were performed using the method of Wells and Farnham (Methods (San Diego, Calif.) 26, 48-56(2002). Confluent cultures were treated with human Isotype IgG or teprotumumab (50 μg/mL) in DMEM with 10% FBS for 3 d, rinsed, and shifted to DMEM with 1% FBS for 16 h with the respective additives, and then treated without or with bTSH (5 mU/mL) for 2 h. Cross-linked protein/DNA and isolated chromatin fragments were immunoprecipitated with target antibodies: anti-HLA-DPB1 [EPR11226] (cat. #abl57210), anti-CD80 [EPR22183] (cat. #ab225674), anti-CD86 [EPR21962] (cat. #ab239075), and anti-PD-L1 [EPR19759](cat. #ab213524),) from Abcam (Cambridge, MA) using the Pierce™ Agarose Chip Kit (Thermo Scientific, cat #26156). Eluted fractions were reverse cross-linked and isolated DNA subjected to RT-PCR using EpiTect ChIP qPCR Primer Assay for human HLA-DRA (cat. #GPH1011269(-)02A, HLA-DRB1 (cat. #GPH1024837(-)02A), CD80 (cat. #GPH1023189(-)02A), CD86 (cat. #GPH1009502(-)02A), PD-L1 (cat. #GPH1012902(-)02A, Qiagen. GAPDH served as the housekeeping gene and values were generated according to the protocol provided by the supplier.

[5] = test system: GD-OF; assay: Slit2 and ROBO1 mRNA and Slit2 protein; conditions: 50 μg/ml, 3 d
Method: FIGS. 14A-14B are graphs showing teprotumumab induces Slit2 and roundabout 1 (ROBO1) mRNA and Slit2 protein in GD-OF. Cultures were treated with either isotype control IgG or teprotumumab (50 μg/ml) for 3 d. Culture media were collected and subjected to Slit2-specific ELISA (FIG. 14A). Levels of Slit2 were normalized to respective cell layer protein content. Cellular RNA was harvested from rinsed cell layers and mRNA reverse transcribed, and cDNA subjected to quantitative real-time PCR for Slit2 and ROBO1 (FIG. 14B). Values were normalized to their respective GAPDH levels. * *, p<0.01, * **, p<0.001.
Real-time PCR Confluent fibrocyte and GD-OF cultures were incubated with bTSH (5 mIU/mL), teprotumumab (50 μg/mL) or linsitinib (1 μM) for the time intervals indicated, washed with PBS and RNA was extracted with the Aurum Total RNA Mini Kit (cat. #732-6820, Bio-Rad, Hercules, CA). Cellular RNA (2 μg) was reverse transcribed using QuantiTect Reverse Transcription kit (cat. #205314, Qiagen (Germantown, MD) and real-time PCR was performed using an Applied Biosystems instrument with QuantiTect SYBR Green PCR kit (cat. no. 204143; Qiagen, Frederick, MD). Primer sequences were as follows.

[6] = test system: purified, isolated cultured CD3+CD4+ T cells; assay: IL-17A and INFγ in purified, isolated cultured T cells (flow cytometry)
Method: as §1, §2

Which results are given for teprotumumab?
icIL-1RA protein levels [1]: upregulated; sIL-1RA protein levels [1]: upregulated; reduction of IL-17A released into the culture media [2]: 52%; reduction of INFγ released into the culture media [2]: 54%; INFγ MFI ([3]; 50 μg/mL, 9 d, control MFI 64.01±10.15): 26.80±5.61; IL-17A MFI ([3]; 50 μg/mL, 9 d, control isotype MFI 76.03±14.17): 65.17±5.61; abundance of adherent CD3+CD4+ T cells ([3]; cultures from both donor cohorts): substantially reduced; basal and bTSH-induced transcription of MHC II, CD80, CD86, PD-L1 genes [4]: attenuated; Slit2 protein synthesis ([5]; ELISA): increased; ROBO1 mRNA expression ([5]; three strains of GD-OF): induced; Slit2 mRNA expression ([5]; three strains of GD-OF): induced; INFγ MFI ([6]; 50 μg/mL, 9 d, control 10.23±0.99): 10.32±0.89; IL-17A MFI ([6]; 50 μg/mL, 9 d, control isotype MFI 12.69±0.19): 12.69±0.31; effect on cytokine (IL-17A, INFγ) expression levels ([6]; purified T cells without fibrocytes): no such effects
